Assays:
Format in all cases: physicochemical
[1] = Stability of samples dried from ethanolic stock in amber glass vials at room temperature under ambient atmosphere, HPLC (Example 7); details: for % Remaining: dried film
Description: Ethanolic stock solutions of 15(S)-HETE free acid and 15(S)-HETE free acid with an approximately equimolar amount of sodium hydroxide (to form the sodium salt in situ) were aliquoted to amber glass vials and dried under a stream of helium. The vials were stored at room temperature under ambient atmosphere. At various times, two vials of each were reconstituted with an aliquot of 50/50 acetonitrile/water and assayed by HPLC for 15(S)-HETE. The results are shown in Table 2 and illustrated in FIG. 1: […]

[2] = Stability of neat 15(S)-HETE free acid vs sodium salt, four days under ambient air, HPLC (Example 6)
Protocol: 15(S)-HETE free acid and 15(S)-HETE-sodium salt were stored under ambient air for four days and exposed to either a temperature of 40° C. in total darkness, or ambient temperature and 300 foot-candles of light (approximately Standard Fluorescent Room Light). Following the four day exposure, aliquots of the samples were analyzed by HPLC for percent remaining HETE and results are reported in Table 1: […]

[3] = Storage stability of 15(S)-HETE-sodium salt as neat solid or as solution in absolute ethanol, HPLC (Example 8)
Protocol: 15(S)-HETE-sodium salt as the neat solid under argon or as solutions in absolute ethanol under ambient atmosphere were stored in amber glass vials in a −20° C. freezer or at room temperature. At various times, the samples were analyzed by HPLC for percent of initial 15(S)-HETE remaining.

For CCCCC[C@H](O)/C=C/C=C\C/C=C\C/C=C\CCCC(=O)O [15(S)-HETE-free acid, 15(S)-HETE free acid, reference compound], the “% Remaining” value ([1]; 0 hours) was 100%, the “% Remaining” value ([1]; 5 hours) was 4% and the “% Remaining” value ([1]; 24 hours) was 0%. The “% Remaining” value ([1]; 55 hours) was 0%, the “% Remaining” value ([1]; 72 hours) was 0% and the “% of Initial Amount Remaining” value ([2]; 40° C., dark) was 0%. The “% of Initial Amount Remaining” value ([2]; ambient temp., 300 F-C light) was 2%.

For CCCCC[C@H](O)/C=C/C=C\C/C=C\C/C=C\CCCC(=O)[O-].[Na+] [15(S)-HETE-sodium salt, 5,8,11,13-Eicosatetraenoic acid, 15-hydroxy-[15S-(5Z,8Z,11Z,13E)]-sodium salt], the “% Remaining” value ([1]; 0 hours) was 100%, the “% Remaining” value ([1]; 5 hours) was 94% and the “% Remaining” value ([1]; 24 hours) was 79%. The “% Remaining” value ([1]; 55 hours) was 66%, the “% Remaining” value ([1]; 72 hours) was 65% and the “stability relative to the corresponding free acid (in words)” value ([1]; up to 72 hours) was “more stable than the corresponding free acid”. For the same molecule, the “% of Initial Amount Remaining” value ([2]; 40° C., dark) was 86%, the “% of Initial Amount Remaining” value ([2]; ambient temp., 300 F-C light) was 58% and the “% of Initial” value ([3]; 1 mg/mL in absolute ethanol, ambient atmosphere, room temp., 2.0 weeks) was 101%. The “% of Initial” value ([3]; 1 mg/mL in absolute ethanol, ambient atmosphere, room temp., 4.4 weeks) was 101%, the “% of Initial” value ([3]; 1 mg/mL in absolute ethanol, ambient atmosphere, room temp., 6.0 weeks) was 101% and the “% of Initial” value ([3]; 1 mg/mL in absolute ethanol, ambient atmosphere, room temp., 8.4 weeks) was 101%. The “% of Initial” value ([3]; 1 mg/mL in absolute ethanol, ambient atmosphere, −20° C. freezer, 2.0 weeks) was 102%, the “% of Initial” value ([3]; 1 mg/mL in absolute ethanol, ambient atmosphere, −20° C. freezer, 4.4 weeks) was 102% and the “% of Initial” value ([3]; 1 mg/mL in absolute ethanol, ambient atmosphere, −20° C. freezer, 6.0 weeks) was 101%. For the same molecule, the “% of Initial” value ([3]; 1 mg/mL in absolute ethanol, ambient atmosphere, −20° C. freezer, 8.4 weeks) was 101%, the “% of Initial” value ([3]; 10 mg/mL in absolute ethanol, ambient atmosphere, room temp., 2.0 weeks) was 101% and the “% of Initial” value ([3]; 10 mg/mL in absolute ethanol, ambient atmosphere, room temp., 4.4 weeks) was 101%. The “% of Initial” value ([3]; 10 mg/mL in absolute ethanol, ambient atmosphere, room temp., 6.0 weeks) was 101%, the “% of Initial” value ([3]; 10 mg/mL in absolute ethanol, ambient atmosphere, room temp., 8.4 weeks) was 100% and the “% of Initial” value ([3]; 10 mg/mL in absolute ethanol, ambient atmosphere, −20° C. freezer, 2.0 weeks) was 101%. The “% of Initial” value ([3]; 10 mg/mL in absolute ethanol, ambient atmosphere, −20° C. freezer, 4.4 weeks) was 102%, the “% of Initial” value ([3]; 10 mg/mL in absolute ethanol, ambient atmosphere, −20° C. freezer, 6.0 weeks) was 101% and the “% of Initial” value ([3]; 10 mg/mL in absolute ethanol, ambient atmosphere, −20° C. freezer, 8.4 weeks) was 101%. The “% of Initial” value ([3]; solid under argon, room temp., 2.0 weeks) was 72%, the “% of Initial” value ([3]; solid under argon, room temp., 4.4 weeks) was 61% and the “% of Initial” value ([3]; solid under argon, room temp., 6.0 weeks) was 42%. For the same molecule, the “% of Initial” value ([3]; solid under argon, room temp., 8.4 weeks) was 28%, the “% of Initial” value ([3]; solid under argon, −20° C. freezer, 2.0 weeks) was 99% and the “% of Initial” value ([3]; solid under argon, −20° C. freezer, 4.4 weeks) was 97%. For the same molecule, the “% of Initial” value ([3]; solid under argon, −20° C. freezer, 6.0 weeks) was 95% and the “% of Initial” value ([3]; solid under argon, −20° C. freezer, 8.4 weeks) was 92%.

From US6429227B1, “Hydroxyeicosatetraenoate salts, compositions and methods of use in treating dry eye disorders” (Alcon Universal Ltd., priority 1999, dated 2002)
